The values that follow come from publication PMC4389225, “Triaminopyrimidine is a fast-killing and long-acting antimalarial clinical candidate” (Nature Communications, 2015).

A value given as a limit tells only on which side of the number the result lay.

One data set deals with T1, hERG (Homo sapiens, UniProt Q12809).
T1 construct: expressed in transfected cells; host or cells: CHO cells
The data set is described as follows: electrophysiology-based hERG assay using IonWorks HT (CHO cells). It is filed as cell-based. Particulars: hERG IC50. The method, then:
hERG IC50 was determined in an electrophysiology-based hERG assay using IonWorks HT (CHO cells) as described earlier.
A general note: hERG is a cardiac potassium channel; its block is linked to QT prolongation.

A further data set in a line: Caco2 permeability. Particulars: human, Caco-2. For orientation: Caco-2 monolayers are a common model of the intestinal barrier.
Data set [1] is described as follows: Rat blood PK, IV and oral. It counts as in vivo. The following applies: Wistar, rat, whole blood, oral, 10 mg/kg, rat; read-out: Rat F (bioavailability). The procedure:
Blood samples were collected at 0.083, 0.25, 0.5, 1, 2, 4, 8, 23, 32, 48, 55 and 72 hours after an IV dose of 2 mg/kg or an oral dose of 10 mg/kg. Oral administration was done using oral gavage at a maximum dose volume of 10 mL/kg. Solution formulation containing 10% NMP, 20% DMA in dextrose / normal saline was used for IV administration and a suspension in 0.5% w/v HPMC with 0.1% v/v Tween 80 was used for oral administration. 25 µl of blood samples were mixed with 100 µL of Milli-Q water and vortexed for 5 minutes in the plate shaker at a speed of 900 rpm to ensure complete hemolysis. Proteins were precipitated by adding 125 µL of cold acetonotrile containing internal standard. After extraction on a plate shaker for 10 minutes at 900 rpm, the plate was centrifuged at 4000 rpm for 20 minutes. The supernatant (180 µL) was transferred to another plate and 2.5 µL of Zinc sulphate (200 mM) was added to separate the heme fraction. This mixture was centrifuged and 10 µL of the supernatant was analyzed by LC-MS/MS. […]

In the next data set the target is T2, Muscarinic M2 receptor (Homo sapiens, UniProt P08172).
T2 construct: purchased CEREP, France (external assay service)
T2 sequence (P08172 1-466): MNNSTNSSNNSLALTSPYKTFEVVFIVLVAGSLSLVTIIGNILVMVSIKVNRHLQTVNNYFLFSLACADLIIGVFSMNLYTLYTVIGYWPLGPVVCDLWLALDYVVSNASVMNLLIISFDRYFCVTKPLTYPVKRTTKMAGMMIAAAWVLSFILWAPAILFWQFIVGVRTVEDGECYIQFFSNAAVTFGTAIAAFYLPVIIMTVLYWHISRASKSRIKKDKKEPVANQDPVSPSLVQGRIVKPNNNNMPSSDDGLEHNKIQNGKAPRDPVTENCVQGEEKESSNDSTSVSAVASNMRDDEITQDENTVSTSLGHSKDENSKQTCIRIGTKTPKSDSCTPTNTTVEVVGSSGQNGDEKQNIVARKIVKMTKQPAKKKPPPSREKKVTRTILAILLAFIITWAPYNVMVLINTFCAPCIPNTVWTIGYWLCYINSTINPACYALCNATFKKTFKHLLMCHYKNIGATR
The data set is described as follows: Muscarinic M2 receptor radioligand binding (CEREP). The procedure: (§1) An in vitro pharmacological profiling panel was specifically designed for the detection of potential high- risk clinical adverse drug reactions. The panel comprised of 26 diverse targets (6 enzymes, 2 transporters, 9 G-protein-coupled receptors (GPCRs), 5 ion channels along with hERG, M2, alpha1A and AchE) and was conduced externally by CEREP, France […]. […] Detailed methodology for in vitro pharmacological profiling assays provided by CEREP can be found at http://www.cerep.fr, with specific reference to the AChE (cat. no. 0363), Muscarinic M1 receptor (cat. no. 0091) and Adrenergic α1A receptor (cat. no. 2338) assays. For enzyme and kinase assays, the results were expressed as a percent inhibition of control-specific activity obtained in the presence of the test compound. The IC50 values (concentration causing a half-maximal inhibition of control-specific activity) and Hill coefficients (nH) were determined by nonlinear regression analysis of the inhibition/concentration–response curves using Hill equation curve fitting as described earlier.
(§2) For radioligand binding assays, the results are expressed as % inhibition of control-specific binding obtained in the presence of the test compounds. The IC50 values (concentration causing a half-maximal inhibition of control-specific binding) and Hill coefficients (nH) were determined by nonlinear regression analysis of the competition curves generated with mean replicate values using Hill equation curve fitting. The inhibition constants (Ki) were subsequently calculated by applying the Cheng Prusoff equation[38].

The target of another data set is T3, α1A adrenoceptor (Homo sapiens, UniProt P35348).
T3 construct: purchased CEREP, France (external assay service) 2338
T3 sequence (P35348 1-466): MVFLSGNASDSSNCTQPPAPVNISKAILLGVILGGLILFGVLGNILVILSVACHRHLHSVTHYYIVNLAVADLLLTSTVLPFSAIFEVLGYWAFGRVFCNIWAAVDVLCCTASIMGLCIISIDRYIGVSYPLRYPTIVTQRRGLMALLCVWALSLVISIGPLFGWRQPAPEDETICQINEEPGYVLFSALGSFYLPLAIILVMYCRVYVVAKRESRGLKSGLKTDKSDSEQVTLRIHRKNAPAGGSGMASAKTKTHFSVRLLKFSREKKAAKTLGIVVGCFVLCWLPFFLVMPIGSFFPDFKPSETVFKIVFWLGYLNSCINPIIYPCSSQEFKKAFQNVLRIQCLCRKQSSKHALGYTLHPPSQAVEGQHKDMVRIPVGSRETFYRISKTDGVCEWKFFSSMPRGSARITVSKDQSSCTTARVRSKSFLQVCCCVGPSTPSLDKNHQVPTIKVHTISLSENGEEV
Briefly: α1A adrenoceptor radioligand binding (CEREP). The method, then: as §1, §2

For data set [2], the target named is T4, acetylcholine esterase (AChE) (Homo sapiens, UniProt P22303).
T4 construct: purchased CEREP, France (external assay service) 0363
T4 sequence (P22303 32-614): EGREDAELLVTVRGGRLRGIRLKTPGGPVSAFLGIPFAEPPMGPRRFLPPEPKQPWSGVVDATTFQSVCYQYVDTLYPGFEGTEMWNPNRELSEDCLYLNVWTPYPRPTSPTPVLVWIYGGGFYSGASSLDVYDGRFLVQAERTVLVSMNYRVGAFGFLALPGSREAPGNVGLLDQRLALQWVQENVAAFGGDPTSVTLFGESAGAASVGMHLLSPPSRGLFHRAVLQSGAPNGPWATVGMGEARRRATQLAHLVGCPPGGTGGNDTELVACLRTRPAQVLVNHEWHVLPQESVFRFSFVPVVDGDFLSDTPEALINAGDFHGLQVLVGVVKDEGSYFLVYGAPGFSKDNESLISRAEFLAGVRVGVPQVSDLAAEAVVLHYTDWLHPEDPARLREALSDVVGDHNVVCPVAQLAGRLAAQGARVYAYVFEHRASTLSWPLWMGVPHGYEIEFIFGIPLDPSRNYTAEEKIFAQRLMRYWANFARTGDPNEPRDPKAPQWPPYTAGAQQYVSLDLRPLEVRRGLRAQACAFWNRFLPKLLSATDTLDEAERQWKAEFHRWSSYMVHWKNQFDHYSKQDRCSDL
The data set is described as follows: AChE enzyme activity assay (CEREP). It is filed as biochemical. Particulars: read-out: AChE IC50. The procedure:
as §1

A further data set deals with Pf K1. Briefly: microbe, parasite or virus in culture. It is filed as cell-based. Particulars: Plasmodium falciparum. An excerpt: (§3) tested in duplicate from two independent experiments using a SYBR-Green based assay2.
(§4) (1 picture or pasted object on this page, not shown here)

A further data set deals with Pf W2. Briefly: microbe, parasite or virus in culture. It is filed as cell-based. The following applies: Plasmodium falciparum.
Excerpt: as §3, §4

Another data set has as its system Pf NF54. The data set is described as follows: microbe, parasite or virus in culture. It counts as cell-based. Particulars: Plasmodium falciparum.
Excerpt: as §3, §4

The subject of a further data set is Pf DD2. The data set is described as follows: microbe, parasite or virus in culture. It counts as cell-based. The following applies: Plasmodium falciparum.
Excerpt: as §3, §4

For another data set, the system named is Pf 7G8. The data set is described as follows: microbe, parasite or virus in culture. Particulars: Plasmodium falciparum. It counts as cell-based.
Excerpt: as §3, §4

Another data set deals with Pf SB1. Briefly: microbe, parasite or virus in culture. It is filed as cell-based. The following applies: Plasmodium falciparum.
Excerpt: as §3, §4

The test system of data set [3] is asexual blood stage of Pf. The data set is described as follows: Pf asexual blood stage potency (Pf IC50). It is filed as cell-based, Plasmodium falciparum. Particulars: Plasmodium falciparum. An excerpt: The TAPs series emerged from a high-throughput screen (HTS) of 500,000 compounds from the AstraZeneca corporate library against the asexual blood stage of Pf using a high-content image-based approach. The procedure for synthesis of compounds 1-6, 10, 11 using a scheme similar to Fig. 1 is provided in Supplementary Note 1. The initial hit provided multiple diversification points for a robust lead optimization campaign. […] Compounds with 2-pyridyl modification at the 2-amino position of pyrimidine core improved potency and solubility at the cost of potent activity against hERG and acetylcholine esterase (AChE; compounds 3-6; Table 1). […] The observed hERG and AChE selectivity improvement with 7 could be attributed to the polar nature of the pyrazole group and its role in reducing the pKa of the core pyrimidine ring. […] To assess the potential for cross-resistance, representative TAPs were screened against a panel of clinical isolates and in vitro-generated mutant strains displaying varying mechanisms of resistance to antimalarial agents currently in use and under development, respectively, (Supplementary Tables 1–3).

T1 sequence (Q12809 whole entry): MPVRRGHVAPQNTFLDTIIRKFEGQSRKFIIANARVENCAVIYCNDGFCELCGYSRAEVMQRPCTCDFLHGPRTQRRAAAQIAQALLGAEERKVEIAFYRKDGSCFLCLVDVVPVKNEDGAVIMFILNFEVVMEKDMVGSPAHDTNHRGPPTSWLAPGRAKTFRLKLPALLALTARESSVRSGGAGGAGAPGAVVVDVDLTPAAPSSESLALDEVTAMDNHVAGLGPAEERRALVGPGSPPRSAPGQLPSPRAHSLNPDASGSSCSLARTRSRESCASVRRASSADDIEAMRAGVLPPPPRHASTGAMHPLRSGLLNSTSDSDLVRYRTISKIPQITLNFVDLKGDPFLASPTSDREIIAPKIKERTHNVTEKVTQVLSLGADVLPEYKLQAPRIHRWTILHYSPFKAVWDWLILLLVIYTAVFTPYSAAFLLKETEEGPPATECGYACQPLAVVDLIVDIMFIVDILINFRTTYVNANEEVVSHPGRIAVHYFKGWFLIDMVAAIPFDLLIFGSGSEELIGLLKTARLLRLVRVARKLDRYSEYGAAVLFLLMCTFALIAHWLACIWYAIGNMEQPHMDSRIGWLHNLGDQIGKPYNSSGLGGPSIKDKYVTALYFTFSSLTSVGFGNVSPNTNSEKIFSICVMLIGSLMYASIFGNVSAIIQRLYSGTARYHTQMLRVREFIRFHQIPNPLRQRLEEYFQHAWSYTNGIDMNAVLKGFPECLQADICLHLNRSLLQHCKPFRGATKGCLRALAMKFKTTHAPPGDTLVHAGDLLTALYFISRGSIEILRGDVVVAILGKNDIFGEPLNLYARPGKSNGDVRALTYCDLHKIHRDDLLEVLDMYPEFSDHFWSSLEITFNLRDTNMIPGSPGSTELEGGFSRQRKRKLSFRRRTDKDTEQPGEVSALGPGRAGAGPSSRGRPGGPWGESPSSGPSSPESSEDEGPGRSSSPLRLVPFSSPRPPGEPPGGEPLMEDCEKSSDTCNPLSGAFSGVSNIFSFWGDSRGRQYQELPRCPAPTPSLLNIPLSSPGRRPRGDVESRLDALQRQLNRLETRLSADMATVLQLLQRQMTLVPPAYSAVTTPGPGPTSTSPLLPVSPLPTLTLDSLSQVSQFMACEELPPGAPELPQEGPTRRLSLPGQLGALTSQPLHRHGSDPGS

As for `CCc1cc(Nc2ncc(N3CCN[C@H](C)C3)c(Nc3cc(C)n(C)n3)n2)nc(C)c1F.Cl.Cl` [compound 8, (R)-N4-(1,5-dimethyl-1H-pyrazol-3-yl)-N2-(4-ethyl-5-fluoro-6-methylpyridin-2-yl)-5-(3-methylpiperazin-1-yl)pyrimidine-2,4-diamine dihydrochloride], the IC50 was greater than 30000 nM against hERG; 3100 nM on Muscarinic M2 receptor; 1300 nM on α1A adrenoceptor; 30000 nM in data set [2]; 64.7 ± 12 nM with Pf K1; 78.8 ± 7 nM in the data set on Pf W2. For the same compound, the IC50 was 57.2 ± 20 nM in the data set on Pf NF54; 38.3 ± 1.5 nM in the data set on Pf DD2; 74.4 ± 17 nM in the data set with Pf 7G8; 34.7 ± 3 nM with Pf SB1; 25 nM in [3]. In the data set “Caco2 permeability”, this compound had an apparent permeability from apical to basolateral (Papp A→B) of 4 ×10⁻⁶ cm/s. Moreover, in [1], the bioavailability was determined as 31%.

As usually defined, the IC50 is the concentration at which inhibition is half-maximal. The Papp A→B is the apparent permeability from the apical to the basolateral side of a cell layer. Low readings indicate poor permeation, high ones ready permeation. In general, bioavailability refers to dose-corrected exposure relative to a reference, in per cent.
